Measurements as given in the NIST ThermoML archive (doi:10.1021/je400468z).
Values joined by “and” are separate entries in the source; they are usually repeats but may differ in a detail not shown here. Equal values may be shown once. Numbers after ± are expanded uncertainties.

Test: relative permittivity at various frequencies (dimensionless)
Settings: Liquid, Frequency=0.001 MHz, Coaxial cylinder capacitor

## CCCCCCC [heptane]
303.56 K, 320.13 kPa
  relative permittivity: 1.90973 ± 0.00074
303.56 K, 1121.5 kPa
  relative permittivity: 1.91097 ± 0.00073
303.56 K, 5049.5 kPa
  relative permittivity: 1.9172 ± 0.00073
303.56 K, 10111 kPa
  relative permittivity: 1.92498 ± 0.00073
303.56 K, 20218 kPa
  relative permittivity: 1.93899 ± 0.00074
303.56 K, 20219 kPa
  relative permittivity: 1.93899 ± 0.00074
303.56 K, 30315 kPa
  relative permittivity: 1.95162 ± 0.00073
303.56 K, 30317 kPa
  relative permittivity: 1.95171 ± 0.00073
303.56 K, 40408 kPa
  relative permittivity: 1.96324 ± 0.00073
303.56 K, 50515 kPa
  relative permittivity: 1.97403 ± 0.00075
303.56 K, 60608 kPa
  relative permittivity: 1.98391 ± 0.00075
333.15 K, 327.25 kPa
  relative permittivity: 1.86971 ± 0.00075
333.15 K, 1134.1 kPa
  relative permittivity: 1.87125 ± 0.00074
333.15 K, 5058.1 kPa
  relative permittivity: 1.87892 ± 0.00074
333.15 K, 5509 kPa
  relative permittivity: 1.87899 ± 0.00074
333.15 K, 10118 kPa
  relative permittivity: 1.88834 ± 0.00073
333.15 K, 10122 kPa
  relative permittivity: 1.88832 ± 0.00073
333.15 K, 20230 kPa
  relative permittivity: 1.90484 ± 0.00074
333.15 K, 20232 kPa
  relative permittivity: 1.90482 ± 0.00074
333.15 K, 30327 kPa
  relative permittivity: 1.91942 ± 0.00074
333.15 K, 30328 kPa
  relative permittivity: 1.91944 ± 0.00074
333.15 K, 40419 kPa
  relative permittivity: 1.93256 ± 0.00073
333.15 K, 50511 kPa
  relative permittivity: 1.9444 ± 0.00073
333.15 K, 60625 kPa
  relative permittivity: 1.95543 ± 0.00075
363.01 K, 328.75 kPa
  relative permittivity: 1.82615 ± 0.00073
363.01 K, 1138 kPa
  relative permittivity: 1.82815 ± 0.00073
363.01 K, 5057.6 kPa
  relative permittivity: 1.83786 ± 0.00072
363.01 K, 5062.5 kPa
  relative permittivity: 1.83787 ± 0.00072
363.01 K, 10125 kPa
  relative permittivity: 1.84924 ± 0.00074
363.01 K, 20232 kPa
  relative permittivity: 1.86884 ± 0.00073 and 1.86885 ± 0.00073
363.01 K, 30330 kPa
  relative permittivity: 1.8855 ± 0.00072
363.01 K, 30332 kPa
  relative permittivity: 1.88575 ± 0.00072
363.01 K, 40413 kPa
  relative permittivity: 1.90054 ± 0.00074
363.01 K, 50513 kPa
  relative permittivity: 1.9141 ± 0.00073
363.01 K, 60612 kPa
  relative permittivity: 1.9264 ± 0.00073
363.01 K, 60613 kPa
  relative permittivity: 1.92636 ± 0.00073
